{
  "source": "patent US9540366B2",
  "about": "“Ring-fused heterocyclic compound” (Kyowa Hakko Kirin Co., Ltd., priority 2012, dated 2017)",
  "key": {"[1]": {"target": "T1, human Cav3.2 T-type Ca2+ channel (Homo sapiens, UniProt O95180)", "T1 construct": "expressed in transfected cells; host or cells: KJMGER8 cells (Namalwa cell-derived cell line)", "T1 sequence (O95180 whole entry)": "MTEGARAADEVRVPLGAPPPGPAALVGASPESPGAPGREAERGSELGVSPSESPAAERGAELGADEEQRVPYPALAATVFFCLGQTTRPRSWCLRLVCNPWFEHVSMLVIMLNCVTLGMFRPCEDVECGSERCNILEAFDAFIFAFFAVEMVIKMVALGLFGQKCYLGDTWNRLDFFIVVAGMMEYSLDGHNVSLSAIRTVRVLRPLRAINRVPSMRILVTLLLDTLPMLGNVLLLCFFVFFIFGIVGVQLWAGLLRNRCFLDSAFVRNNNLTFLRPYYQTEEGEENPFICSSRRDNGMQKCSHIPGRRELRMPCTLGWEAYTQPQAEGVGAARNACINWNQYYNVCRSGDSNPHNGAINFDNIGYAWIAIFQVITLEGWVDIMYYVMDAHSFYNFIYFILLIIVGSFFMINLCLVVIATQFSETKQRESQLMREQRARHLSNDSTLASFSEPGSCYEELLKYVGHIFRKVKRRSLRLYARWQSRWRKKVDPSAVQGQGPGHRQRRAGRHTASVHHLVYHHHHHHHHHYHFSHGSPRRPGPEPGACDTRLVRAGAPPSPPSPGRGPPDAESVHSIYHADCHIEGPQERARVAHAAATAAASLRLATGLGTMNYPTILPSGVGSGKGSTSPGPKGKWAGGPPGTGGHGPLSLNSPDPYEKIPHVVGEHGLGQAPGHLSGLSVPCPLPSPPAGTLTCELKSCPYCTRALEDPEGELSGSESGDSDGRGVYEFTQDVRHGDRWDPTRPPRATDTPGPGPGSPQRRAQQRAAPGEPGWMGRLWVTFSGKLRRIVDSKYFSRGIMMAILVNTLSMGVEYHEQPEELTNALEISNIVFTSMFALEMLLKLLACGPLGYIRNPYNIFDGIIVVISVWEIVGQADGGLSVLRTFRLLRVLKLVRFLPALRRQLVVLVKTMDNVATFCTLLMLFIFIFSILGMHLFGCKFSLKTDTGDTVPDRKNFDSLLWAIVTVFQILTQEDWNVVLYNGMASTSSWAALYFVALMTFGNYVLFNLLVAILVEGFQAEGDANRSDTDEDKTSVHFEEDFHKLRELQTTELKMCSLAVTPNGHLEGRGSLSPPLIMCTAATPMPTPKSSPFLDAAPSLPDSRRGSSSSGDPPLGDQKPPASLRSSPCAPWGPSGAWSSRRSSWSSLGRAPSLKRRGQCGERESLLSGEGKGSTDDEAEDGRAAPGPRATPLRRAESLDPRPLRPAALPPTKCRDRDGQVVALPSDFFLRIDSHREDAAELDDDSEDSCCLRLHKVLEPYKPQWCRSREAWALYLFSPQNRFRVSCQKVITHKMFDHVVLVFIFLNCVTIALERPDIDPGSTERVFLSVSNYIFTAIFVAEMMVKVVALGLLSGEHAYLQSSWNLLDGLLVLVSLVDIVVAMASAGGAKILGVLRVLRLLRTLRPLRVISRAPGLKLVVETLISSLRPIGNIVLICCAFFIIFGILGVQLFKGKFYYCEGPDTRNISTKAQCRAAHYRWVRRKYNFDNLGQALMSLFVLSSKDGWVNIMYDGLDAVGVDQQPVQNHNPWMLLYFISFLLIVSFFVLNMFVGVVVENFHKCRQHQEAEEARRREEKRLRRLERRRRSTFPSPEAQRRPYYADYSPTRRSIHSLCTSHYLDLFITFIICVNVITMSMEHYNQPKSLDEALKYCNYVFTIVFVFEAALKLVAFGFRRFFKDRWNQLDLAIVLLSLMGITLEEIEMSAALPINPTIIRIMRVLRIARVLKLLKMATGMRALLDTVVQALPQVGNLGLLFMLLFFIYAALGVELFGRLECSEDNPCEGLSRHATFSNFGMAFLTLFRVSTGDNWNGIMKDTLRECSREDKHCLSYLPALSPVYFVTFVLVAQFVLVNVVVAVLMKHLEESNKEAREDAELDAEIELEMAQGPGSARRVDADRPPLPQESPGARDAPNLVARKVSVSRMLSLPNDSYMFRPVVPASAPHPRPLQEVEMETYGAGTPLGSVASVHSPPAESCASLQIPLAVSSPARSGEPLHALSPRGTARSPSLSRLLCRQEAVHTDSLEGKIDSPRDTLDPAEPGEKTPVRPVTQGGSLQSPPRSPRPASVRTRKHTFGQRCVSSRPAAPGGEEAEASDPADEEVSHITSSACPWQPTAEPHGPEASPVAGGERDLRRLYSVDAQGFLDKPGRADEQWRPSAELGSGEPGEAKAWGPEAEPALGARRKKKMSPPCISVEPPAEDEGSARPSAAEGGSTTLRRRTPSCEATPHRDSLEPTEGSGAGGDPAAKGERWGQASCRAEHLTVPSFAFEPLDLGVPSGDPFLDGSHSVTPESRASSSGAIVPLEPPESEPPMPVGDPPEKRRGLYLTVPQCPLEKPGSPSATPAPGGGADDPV", "assay": "Inhibitory effect for intracellular calcium response via Cav3.2 T-type Ca2+ channels (FLIPR Calcium 3 Assay Kit)", "type": "cell-based"}, "[2]": {"tested_on": "morphine-induced pruritus mice", "assay": "Inhibitory effect for pruritus in morphine-induced pruritus mice", "type": "in vivo", "conditions": "oral dose of 10 mg/kg or less, given 30 minutes or 1 hour before intrathecal morphine; scratching counted for 30 minutes; male ddY mice", "protocol": "Inhibitory Effect for Pruritus in Morphine-Induced Pruritus Mice\nMorphine (1 nmol/5 μL, dissolved in physiological saline) or physiological saline was intrathecally administered between the fifth and sixth lumbar vertebrae of male ddY mice using a microsyringe fitted with a 30-gauge injection needle. Mice to which only morphine was administered were referred to as a control group, and mice to which only physiological saline was administered were referred to as a physiological saline-administered group.\nThe number of scratching behavior with the hind legs which began to be observed immediately after the morphine administration was measured for 30 minutes. Because mice show continuous scratching actions in each scratching behavior, a series of such actions was counted as a single scratching behavior.\nEach test compound was administered 30 minutes or 1 hour before the morphine administration. The test compound was suspended in a 0.5% methylcellulose solution and was prepared plural administration solutions of different concentrations, and each of them was orally administered in a volume of 10 mL/kg."}},
  "data": [
    {"compound": "COC(C)(C)CNC(=O)c1cc2nc(C(C)(F)F)c(CC3CCC(F)(F)CC3)n2c(C#N)c1C", "note": "[Compound 184, 5-Cyano-3-[(4,4-difluorocyclohexyl)methyl]-2-(1,1-difluoroethyl)-N-(2-methoxy-2-methylpropyl)-6-methylimidazo[1,2-a]pyridine-7-carboxamide]", "values": [
      {"measurement": "IC50", "setting": "[1]", "result": "≤ 100", "unit": "nM"},
      {"measurement": "inhibition of the increase of the scratching behavior in morphine-induced pruritus mice", "setting": "[2]", "result": "inhibited the increase of the scratching behavior"}
    ]}
  ]
}
